Assay results as given in patent publication US20080200454A1, “CARBON-LINKED TETRAHYDRO-PYRAZOLO-PYRIDINE MODULATORS OF CATHEPSIN S” (priority 2007, published 2008).

biological target: Recombinant human cathepsin S (CatS) (Homo sapiens, UniProt P25774); test: Recombinant human cathepsin S (CatS) inhibition assay, fluorogenic substrate Z-Valine-Valine-Arginine-AMC; conditions: not given;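 note: Baculovirus-expressed CatS in pH 5.0 sodium acetate buffer with DTT and NaCl, fluorescence read each minute over 20 min, inhibition derived from rate slope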
Sequence (P25774 115-331): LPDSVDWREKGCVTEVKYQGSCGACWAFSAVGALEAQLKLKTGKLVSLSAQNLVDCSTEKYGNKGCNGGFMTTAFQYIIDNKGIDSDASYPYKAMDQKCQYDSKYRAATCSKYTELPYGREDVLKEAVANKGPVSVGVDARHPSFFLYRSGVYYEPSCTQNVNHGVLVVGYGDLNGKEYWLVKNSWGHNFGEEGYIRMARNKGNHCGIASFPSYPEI

Row | SMILES | IC50
1 | CS(=O)(=O)N1CCc2c(c(-c3ccc(Cl)c(CCCNS(=O)(=O)c4cccc(C#N)c4)c3)nn2CCCN2CCC(N3CCCC3=O)CC2)C1 [Example 98, N-{3-[2-Chloro-5-(5-methanesulfonyl-1-{3-[4-(2-oxo-pyrrolidin-1-yl)-piperidin-1-yl]-propyl}-4,5,6,7-tetrahydro-1H-pyrazolo[4,3-c]pyridin-3-yl)-phenyl]-propyl}-3-cyano-benzenesulfonamide] | 1410 nM
2 | NC(=O)N1CCc2c(c(-c3ccc(Cl)c(C#Cc4ccc(COCC5CNCCO5)cc4)c3)nn2CCCN2CCSCC2)C1 (stereo not drawn) [Example 548, 3-{4-Chloro-3-[(4-{[(morpholin-2-ylmethyl)oxy]methyl}phenyl)ethynyl]phenyl}-1-(3-thiomorpholin-4-ylpropyl)-1,4,6,7-tetrahydro-5H-pyrazolo[4,3-c]pyridine-5-carboxamide] | 120 nM
3 | CS(=O)(=O)N1CCc2c(c(-c3ccc(Cl)c(C#Cc4ccc(CNCc5ccc(Cl)cc5)cc4)c3)nn2CCCN2CCOC(CO)C2)C1 (stereo not drawn) [Example 389] | 230 nM
4 | CS(=O)(=O)N1CCc2c(c(-c3ccc(Cl)c(C#Cc4ccc(CNCc5ccc(Cl)cc5)cc4)c3)nn2CC(O)CN2CCC(C(N)=O)CC2)C1 (stereo not drawn) [Example 363, 1-{3-[3-(4-Chloro-3-{[4-({[(4-chlorophenyl)methyl]amino}methyl)phenyl]ethynyl}phenyl)-5-(methylsulfonyl)-4,5,6,7-tetrahydro-1H-pyrazolo[4,3-c]pyridin-1-yl]-2-hydroxypropyl}piperidine-4-carboxamide] | 90 nM
5 | NC(=O)N1CCc2c(c(-c3ccc(Cl)c(C#Cc4ccc(CNCc5ccc(Cl)cc5)cc4)c3)nn2C[C@@H](O)CN2CCOCC2)C1 [Example 259, (S)-3-(4-Chloro-3-{4-[(4-chloro-benzylamino)-methyl]-phenylethynyl}-phenyl)-1-(2-hydroxy-3-morpholin-4-yl-propyl)-1,4,6,7-tetrahydro-pyrazolo[4,3-c]pyridine-5-carboxylic acid amide] | 80 nM
6 | CS(=O)(=O)N1CCc2c(c(-c3ccc(Cl)c(C#Cc4ccc5c(c4)CNCC5)c3)nn2CCCN2CCC(C(N)=O)CC2)C1 [Example 135, 1-(3-{3-[4-Chloro-3-(1,2,3,4-tetrahydro-isoquinolin-7-ylethynyl)-phenyl]-5-methanesulfonyl-4,5,6,7-tetrahydro-pyrazolo[4,3-c]pyridin-1-yl}-propyl)-piperidine-4-carboxylic acid amide] | 60 nM
7 | CC1C(=O)NCCN1CCCn1nc(-c2ccc(Cl)c(C#Cc3ccc(CNCc4ccc(Cl)cc4)cc3)c2)c2c1CCN(S(C)(=O)=O)C2 (stereo not drawn) [Example 406, 4-{3-[3-(4-Chloro-3-{[4-({[(4-chlorophenyl)methyl]amino}methyl)phenyl]ethynyl}phenyl)-5-(methylsulfonyl)-4,5,6,7-tetrahydro-1H-pyrazolo[4,3-c]pyridin-1-yl]propyl}-3-methylpiperazin-2-one] | 460 nM
8 | CS(=O)(=O)N1CCc2c(c(-c3ccc(Cl)c(C#Cc4ccc(C(=O)NCCN5CCOCC5)cc4)c3)nn2CCCN2CCCCC2)C1 [Example 608, 4-({2-Chloro-5-[5-(methylsulfonyl)-1-(3-piperidin-1-ylpropyl)-4,5,6,7-tetrahydro-1H-pyrazolo[4,3-c]pyridin-3-yl]phenyl}ethynyl)-N-(2-morpholin-4-ylethyl)benzamide] | 70 nM
9 | CS(=O)(=O)N1CCc2c(c(-c3ccc(Cl)c(C#Cc4ccc(Cl)cc4)c3)nn2CC(O)CN2CCC3(CCNC3=O)CC2)C1 (stereo not drawn) [Example 298, 8-{3-[3-{4-Chloro-3-[(4-chlorophenyl)ethynyl]phenyl}-5-(methylsulfonyl)-4,5,6,7-tetrahydro-1H-pyrazolo[4,3-c]pyridin-1-yl]-2-hydroxypropyl}-2,8-diazaspiro[4.5]decan-1-one] | 50 nM
10 | CS(=O)(=O)N1CCc2c(c(-c3ccc(Cl)c(C#Cc4ccc5c(c4)CN(C4CC4)CC5)c3)nn2CCCN2CCN(c3ccccc3)CC2)C1 [Example 280, 7-[(2-Chloro-5-{5-(methylsulfonyl)-1-[3-(4-phenylpiperazin-1-yl)propyl]-4,5,6,7-tetrahydro-1H-pyrazolo[4,3-c]pyridin-3-yl}phenyl)ethynyl]-2-cyclopropyl-1,2,3,4-tetrahydroisoquinoline] | 40 nM
11 | C[C@H]1COCCN1CCCn1nc(-c2ccc(Cl)c(C#Cc3ccc(Cl)c(CNCCO)c3)c2)c2c1CCN(C(=O)C(N)=O)C2 [Example 295, 2-(3-{4-Chloro-3-[(4-chloro-3-{[(2-hydroxyethyl)amino]methyl}phenyl)ethynyl]phenyl}-1-{3-[(3S)-3-methylmorpholin-4-yl]propyl}-1,4,6,7-tetrahydro-5H-pyrazolo[4,3-c]pyridin-5-yl)-2-oxoacetamide] | 30 nM
12 | CC(=O)Nc1ccc(C#Cc2cc(-c3nn(CCCN4CCOCC4)c4c3CN(S(C)(=O)=O)CC4)ccc2Cl)cc1 [Example 66, N-(4-{2-Chloro-5-[5-methanesulfonyl-1-(3-morpholin-4-yl-propyl)-4,5,6,7-tetrahydro-1H-pyrazolo[4,3-c]pyridin-3-yl]-phenylethynyl}-phenyl)-acetamide] | 250 nM

same assay, conditions: CatS IC50

Row | SMILES | IC50
13 | CS(=O)(=O)N1CCc2c(c(-c3ccc(Cl)c(CCc4ccc5c(c4)CNCC5)c3)nn2CCCN2CCN(C3CC3)CC2)C1 [Example 229, 7-[2-(2-Chloro-5-{1-[3-(4-cyclopropylpiperazin-1-yl)propyl]-5-(methylsulfonyl)-4,5,6,7-tetrahydro-1H-pyrazolo[4,3-c]pyridin-3-yl}phenyl)ethyl]-1,2,3,4-tetrahydroisoquinoline] | 90 nM
14 | CS(=O)(=O)N1CCc2c(c(-c3ccc(Cl)c(C#Cc4cccc(CNCc5ccc(Cl)cc5)c4)c3)nn2CCCN2CCOCC2)C1 [Example 438, 1-[3-({2-Chloro-5-[5-(methylsulfonyl)-1-(3-morpholin-4-ylpropyl)-4,5,6,7-tetrahydro-1H-pyrazolo[4,3-c]pyridin-3-yl]phenyl}ethynyl)phenyl]-N-[(4-chlorophenyl)methyl]methanamine] | 720 nM
15 | CN1CCN(CCCn2nc(-c3ccc(Cl)c(C#Cc4ccc(CNCc5ccc(Cl)cc5)cc4)c3)c3c2CCN(S(C)(=O)=O)C3)CC1 [Example 354, 1-{4-[(2-Chloro-5-{1-[3-(4-methylpiperazin-1-yl)propyl]-5-(methylsulfonyl)-4,5,6,7-tetrahydro-1H-pyrazolo[4,3-c]pyridin-3-yl}phenyl)ethynyl]phenyl}-N-[(4-chlorophenyl)methyl]methanamine] | 360 nM
16 | COC(=O)[C@H]1Cc2ccc(C#Cc3cc(-c4nn(CCCN5CCOCC5)c5c4CN(S(C)(=O)=O)CC5)ccc3Cl)cc2CN1 [Example 200, Methyl (3R)-7-({2-chloro-5-[5-(methylsulfonyl)-1-(3-morpholin-4-ylpropyl)-4,5,6,7-tetrahydro-1H-pyrazolo[4,3-c]pyridin-3-yl]phenyl}ethynyl)-1,2,3,4-tetrahydroisoquinoline-3-carboxylate] | 90 nM
17 | CS(=O)(=O)N1CCc2c(c(-c3ccc(Cl)c(C#Cc4ccc(C(=O)NC[C@@H]5CCCN5)cc4)c3)nn2CCCN2CCCCC2)C1 [Example 611, 4-({2-Chloro-5-[5-(methylsulfonyl)-1-(3-piperidin-1-ylpropyl)-4,5,6,7-tetrahydro-1H-pyrazolo[4,3-c]pyridin-3-yl]phenyl}ethynyl)-N-[(2S)-pyrrolidin-2-ylmethyl]benzamide] | 100 nM
18 | CC(C)NCc1cc(C#Cc2cc(-c3nn(CCCN4CCOC[C@@H]4C)c4c3CN(C(=O)C(N)=O)CC4)ccc2Cl)ccc1Cl [Example 619, 2-(3-{4-Chloro-3-[(4-chloro-3-{[(1-methylethyl)amino]methyl}phenyl)ethynyl]phenyl}-1-{3-[(3S)-3-methylmorpholin-4-yl]propyl}-1,4,6,7-tetrahydro-5H-pyrazolo[4,3-c]pyridin-5-yl)-2-oxoacetamide] | 20 nM
19 | CN(Cc1ccccc1)Cc1cccc(C#Cc2cc(-c3nn(CCCN4CCOCC4)c4c3CN(S(C)(=O)=O)CC4)ccc2Cl)c1 [Example 528, 1-[3-({2-Chloro-5-[5-(methylsulfonyl)-1-(3-morpholin-4-ylpropyl)-4,5,6,7-tetrahydro-1H-pyrazolo[4,3-c]pyridin-3-yl]phenyl}ethynyl)phenyl]-N-methyl-N-(phenylmethyl)methanamine] | 580 nM
20 | NC(=O)N1CCc2c(c(-c3ccc(Cl)c(C#Cc4ccc(Cl)c(CNC5CC5)c4)c3)nn2CCCN2CCSCC2)C1 [Example 605, 3-[4-Chloro-3-({4-chloro-3-[(cyclopropylamino)methyl]phenyl}ethynyl)phenyl]-1-(3-thiomorpholin-4-ylpropyl)-1,4,6,7-tetrahydro-5H-pyrazolo[4,3-c]pyridine-5-carboxamide] | 40 nM
21 | CS(=O)(=O)N1CCc2c(c(-c3ccc(Cl)c(C#Cc4ccc5c(c4)CN[C@@H](C(=O)N4CCOCC4)C5)c3)nn2CCCN2CCOCC2)C1 [Example 541, (3R)-7-({2-Chloro-5-[5-(methylsulfonyl)-1-(3-morpholin-4-ylpropyl)-4,5,6,7-tetrahydro-1H-pyrazolo[4,3-c]pyridin-3-yl]phenyl}ethynyl)-3-(morpholin-4-ylcarbonyl)-1,2,3,4-tetrahydroisoquinoline] | 960 nM
22 | CS(=O)(=O)N1CCc2c(c(-c3ccc(Cl)c(C#Cc4ccc(CNCCc5cccs5)cc4)c3)nn2CCCN2CCOCC2)C1 [Example 423, N-{[4-({2-Chloro-5-[5-(methylsulfonyl)-1-(3-morpholin-4-ylpropyl)-4,5,6,7-tetrahydro-1H-pyrazolo[4,3-c]pyridin-3-yl]phenyl}ethynyl)phenyl]methyl}-2-(2-thienyl)ethanamine] | 270 nM
23 | CS(=O)(=O)N1CCc2c(c(-c3ccc(Cl)c(C#Cc4ccc(Cl)c(Cl)c4)c3)nn2CCCN2CCOCC2)C1 [Example 13, 3-[4-Chloro-3-(3,4-dichloro-phenylethynyl)-phenyl]-5-methanesulfonyl-1-(3-morpholin-4-yl-propyl)-4,5,6,7-tetrahydro-1H-pyrazolo[4,3-c]pyridine] | 320 nM
24 | CS(=O)(=O)N1CCc2c(c(-c3ccc(Cl)c(C#Cc4ccc5c(c4)CNC5)c3)nn2CCCN2CCOCC2)C1 [Example 393, 3-[4-Chloro-3-(2,3-dihydro-1H-isoindol-5-ylethynyl)phenyl]-5-(methylsulfonyl)-1-(3-morpholin-4-ylpropyl)-4,5,6,7-tetrahydro-1H-pyrazolo[4,3-c]pyridine] | 220 nM
